Reference: patent US20060280690A1, “Methods of preparing a foam comprising a sclerosing agent” (priority 2003, published 2006)

Assay: In vitro absorption of foam/gas in fresh human venous blood
Type: in vitro ADME
Details: 0.5 ml aliquot in 20 ml blood
Description: In vitro experiments were conducted to determine the absorption of foam made with different gases in fresh human venous blood.
A 20 ml polypropylene syringe barrel was prepared by puncturing its side wall with a relatively large hypodermic needle to make a hole approximately 1 mm in diameter. This hole was then covered by securing a piece of clear flexible vinyl sheet over it with clear adhesive tape. A small magnetic stirrer element was introduced into the syringe barrel and the plunger then replaced. 20 ml of human venous blood was then with withdrawn in the usual manner from a human subject using the specially prepared syringe fitted with a hypodermic needle.
The hypodermic needle was removed and the syringe then placed on a magnetic stirrer unit so that the magnetic element in the syringe thoroughly agitated the blood. The Luer nozzle of the syringe was then connected to a 50 cm piece of manometer tubing which was arranged horizontally and left open at one end. The manometer tubing was secured against a scale.
A 0.5 ml measuring syringe with a fine pre-fitted needle was then filled with foam made from 1% polidocanol solution and air. The density of the foam was 0.13 g/ml (±0.03 g/ml), the liquid component making up approximately 13% of the total volume of foam (±3%).
The needle of the 0.5 ml syringe was then introduced through the vinyl sheet on the side wall of the 20 ml syringe. […] The 0.5 ml aliquot of foam was then injected quickly and simultaneously a timer started (t0). As the foam displaced blood in the 20 ml syringe, the column of blood from the 20 ml syringe was displaced into the manometer tubing and the distance along the tubing reached by the distal end of the blood column was noted against the scale. The scale itself comprised spaced marker lines equally spaced at about 1 cm intervals. It was determined that a distance of 45 intervals on this scale corresponded to an internal volume of in the manometer tubing of approximately 0.5 ml.
As the gas in the foam started to be absorbed by the blood, the blood in the manometer tubing started to recede back towards the syringe. After the column appeared to have stopped moving, the timer was stopped (tF). The position of the distal end was again noted.
In this experiment, the air foam test was only observed for a few minutes after tF. However, further experiments have been conducted by the inventors, the results of which are not formally recorded here, involving foam with a percentage of nitrogen. A 20 ml syringe of fresh human venous blood, as in the above experiments, was injected with a 0.5 ml aliquot of a foam containing a percentage of nitrogen. The contents of the syringe were agitated as above and a period of 24 hours allowed to elapse.

## O=O [Oxygen, oxygen]
  Absorbed volume at tF: 0.46 mL
  Unabsorbed gas %: 8%
  Unabsorbed gas ml: 0.04 mL
Time until blood column stopped moving
  tF: 140 s
